Results: patent US20090233993A1, “COMPOSITIONS AND METHODS FOR INHIBITING GSK3 ACTIVITY AND USES THEREOF” (Burnham Institute for Medical Research, priority 2008, published 2009)

Tests used:
PKA = PKA inhibitor H89 treatment of FG01-transfected N2aSwe cells; assay type: cell-based, mouse; details: H89 2 μM, 4 hrs, FG01-transfected N2a/Swe cells
Description: After 48 hr incubation, cell media were changed to Opti-MEM (Invitrogen) containing DMSO or a PKA activity inhibitor H89 (2 μM) and cells were incubated for additional 4 hrs. The cell media were used for Aβ immunoprecipitation-Western blotting and cell lysates were subjected to Western blotting for p-CREB (substrate for PKA) and p-GSK3β. As shown, inhibiting PKA activity with H89 prevented serine phosphorylation of CREB and GSK3β by FG01.
N2aSwe cells were transfected with control vector or FG01 and then equally split. Four hours before collection, cells were treated with the GSK-3 inhibitor lithium chloride (5 mM) or sodium chloride (5 mM, as control). Alternatively, cells were treated with a PKA inhibitor H89 at 10 μM or with DMSO for control.

FG01 = FG01 RNA interference in N2aSwe cells; assay type: cell-based, mouse
Excerpt: Cells were collected for mRNA extraction, reverse-transcription, and PCR amplification with FG01 specific primers to study the knockdown efficiency (upper panel), n=3. Alternatively, cells were lysed and cell lysates subjected to Western blotting for p-CREB, CREB, p-GSK3β, and GSK3β. Aβ in conditioned media was subjected to immunoprecipitation-Western blotting (lower panels). As shown, knockdown of FG01 coincided with a concomitant decrease in GSK3β phosphorylation (inactivation). **: p<0.01. […] Moreover, as PKA is a cAMP-dependent protein kinase, FG01 is likely having this effect through adenylyl cyclase (AC) activation of cAMP.
The mouse FG01 siRNA used was: 5′-[…]-3′ (SEQ ID NO:20). The control siRNA was from Invitrogen. siRNA was transfected into N2a cells using Lipofectamine RNAiMAX reagent (Invitrogen), following the manufacturer's protocol. After FG01 RNA interference, total RNA was extracted from N2a cells by Trizol reagent (Invitrogen). After reverse transcription into first strand cDNA using standard conditions, samples were analyzed independently by real-time PCR using an iCycler iQ with SYBR green supermix (Bio-Rad). The FG01 primer pair used for amplification was: 5′: […] (SEQ ID NO:21) and 3′: […] (SEQ ID NO:22). A pair of β-actin primers served as controls (Zhang et al., 2007).

[1] = downregulation of endogenous FG01 in N2aSwe cells

O=S(=O)(NCCNC/C=C/c1ccc(Br)cc1)c1cccc2cnccc12 [H89, reference compound]
serine phosphorylation of CREB by FG01 (PKA): prevented | serine phosphorylation of GSK3β by FG01 (PKA): prevented

FG01 siRNA: mouse FG01 siRNA 5′-UACUGUUUGUCAUGCCACUUCUGAU-3′ (SEQ ID NO:20) (listed as RNA, chemistry not given here)
Aβ generation (FG01; [1]): increased | CREB phosphorylation (FG01; [1]): dramatically reduced | GSK-3 activity (FG01; [1]): increased | GSK3β phosphorylation (inactivation) (FG01; knockdown of FG01 in N2a/Swe cells vs scramble siRNA): decrease
